Source: US9615577B2, “Herbicidally active cyclic dione compounds, or derivatives therefor, substituted by a phenyl which has an alkynyl-containing substituent” (Syngenta Limited, priority 2012, dated 2017)

How the values were obtained:
Format in all cases: in vivo
[1] = system: Alopecurus myosuroides (ALOMY); assay: Test 1A glasshouse assay for herbicidal activity, post-emergence; conditions: 312 h, 250 g/ha, evaluated after 13 days, read-out: percentage phytotoxicity ALOMY
Outline: (§1)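 Test plants grew from seed in standard soil under controlled glasshouse conditions (24/16 °C, 14 h light, 65% humidity) and received an aqueous acetone (50:50) spray with 0.5% Tween 20, either one day after sowing or after eight days. Damage was rated visually as percent phytotoxicity 13 days later.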

[2] = system: Amaranthus retroflexus (AMARE); assay: as above; conditions: 312 h, 250 g/ha, evaluated after 13 days, read-out: percentage phytotoxicity AMARE
Outline: as §1

Solanum nigrum (SOLNI) [3] = assay: as above; conditions: 312 h, 250 g/ha, evaluated after 13 days, read-out: percentage phytotoxicity SOLNI
Outline: as §1

[4] = system: Ipomoea hederacea (IPOHE); assay: as above; conditions: 312 h, 250 g/ha, evaluated after 13 days, read-out: percentage phytotoxicity IPOHE
Outline: as §1

Setaria faberi (SETFA) [5] = assay: as above; conditions: 312 h, 250 g/ha, evaluated after 13 days, read-out: percentage phytotoxicity SETFA
Outline: as §1

[6] = system: Echinochloa crus-galli (ECHCG); assay: as above; conditions: 312 h, 250 g/ha, evaluated after 13 days, read-out: percentage phytotoxicity ECHCG
Outline: as §1

[7] = system: Alopecurus myosuroides (ALOMY); assay: Test 1A glasshouse assay for herbicidal activity, pre-emergence; conditions: 312 h, 250 g/ha, evaluated after 13 days, read-out: percentage phytotoxicity ALOMY
Outline: as §1

[8] = system: Amaranthus retroflexus (AMARE); assay: as above; conditions: 312 h, 250 g/ha, evaluated after 13 days, read-out: percentage phytotoxicity AMARE
Outline: as §1

Solanum nigrum (SOLNI) [9] = assay: as above; conditions: 312 h, evaluated after 13 days, read-out: percentage phytotoxicity SOLNI
Outline: as §1

[10] = system: Ipomoea hederacea (IPOHE); assay: as above; conditions: 312 h, evaluated after 13 days, read-out: percentage phytotoxicity IPOHE
Outline: as §1

Setaria faberi (SETFA) [11] = assay: as above; conditions: 312 h, 250 g/ha, evaluated after 13 days, read-out: percentage phytotoxicity SETFA
Outline: as §1

[12] = system: Echinochloa crus-galli (ECHCG); assay: as above; conditions: 312 h, 250 g/ha, evaluated after 13 days, read-out: percentage phytotoxicity ECHCG
Outline: as §1

[13] = system: Amarantus retroflexus (AMARE); assay: Biological Example 2 comparative herbicidal data, post-emergence glasshouse screen; conditions: Amaranthus retroflexus, read-out: Post-emergence herbicidal activities (percentage phytotoxicity) AMARE
[14] = system: Abutilon theophasti Medik. (ABUTH); assay: Test 1A glasshouse assay for herbicidal activity, post-emergence; conditions: 312 h, 250 g/ha, evaluated after 13 days, read-out: percentage phytotoxicity ABUTH
Outline: as §1

[15] = system: Digitaria sanguinalis (DIGSA); assay: Biological Example 3 glasshouse assay for herbicidal activity, using various adjuvant systems, post-emergence; conditions: 8 g/ha, 0.5% v/v Adigor + 1.0% v/v AMS + 12.5% v/v IPA
Protocol: (§2) Post-emergence foliar spray application, 200 L/ha, usually one or two replicates for the weeds (depending on application rate), and two replicates for soybean.
(§3) Standard warm conditions (tropical), in glasshouse. Specifically, the glasshouse bay conditions are 24° C./18° C. day/night; 16/8 hours light/dark; 65% humidity.
(§4) The herbicidal application takes place at the following growth stages for plants which include inter alia one or more of the following plants (usually the herbicidal application takes place on at least the following six plants: DIGSA, ELEIN, SETFA, GLXMA Nikko, and GLXMA TMG133, and either BRADC or BRAPP):
Digitaria sanguinalis (DIGSA)—growth stage 12 or 13
(§5) Each test Compound is applied with one of the following adjuvant systems (all percentages are final concentrations in the aqueous spray mixture):
(§6) Adjuvant system 1: 0.5% v/v Adigor™ *, 1.0% v/v AMS (ammonium sulphate) and 12.5% v/v IPA (isopropyl alcohol).
(§7) Adjuvant system 2: 0.5% v/v Adigor™ * and 12.5% v/v IPA (isopropyl alcohol).
(§8) Adjuvant system 3: 0.5% v/v Hexamoll™ DINCH **, 1.0% v/v AMS (ammonium sulphate) and 12.5% v/v IPA (isopropyl alcohol).
Seeds of the weed plants, typically including inter alia [either Brachiaria decumbens (BRADC) or Brachiaria platyphylla (BRAPP)], Digitaria sanguinalis (DIGSA), Eleusine indica (ELEIN), Setaria faberi (SETFA) are sown in seed trays (troughs) containing clay loam soil (pH 7.0, 2.2% organic matter, “Trough Mix A”); and soybean seed is sown in pots containing the same soil with 3 soybean seedlings per pot. The plants are sprayed with the test herbicide when they reach the growth stages mentioned above. […]
(§9) A visual assessment of the % herbicidal damage is made 7 and 14 Days After herbicide Application (DAA) (or, in a minority of cases, 7 and 15 DAA), and the results are recorded as % visual herbicidal damage where 0%=no damage to plants and 100%=plant totally killed. […]

Setaria faberi (SETFA) [16] = assay: as above; conditions: 8 g/ha, 0.5% v/v Adigor + 1.0% v/v AMS + 12.5% v/v IPA
Protocol: as §2, §3, §4
Setaria faberi (SETFA)—growth stage 12 or 13
as §5, §6, §7, §8
(§10) Seeds of the weed plants, typically including inter alia [either Brachiaria decumbens (BRADC) or Brachiaria platyphylla (BRAPP)], Digitaria sanguinalis (DIGSA), Eleusine indica (ELEIN), Setaria faberi (SETFA) are sown in seed trays (troughs) containing clay loam soil (pH 7.0, 2.2% organic matter, “Trough Mix A”); and soybean seed is sown in pots containing the same soil with 3 soybean seedlings per pot. The plants are sprayed with the test herbicide when they reach the growth stages mentioned above.
(§11) The test herbicidal solutions are prepared by mixing the appropriate aliquots of the test substance(s) and the adjuvant system indicated above *** in deionised water to give the desired treatment concentration. […]
as §9

[17] = system: Abutilon theophasti Medik. (ABUTH); assay: Test 1A glasshouse assay for herbicidal activity, pre-emergence; conditions: 312 h, 250 g/ha, evaluated after 13 days, read-out: percentage phytotoxicity ABUTH
Outline: as §1

[18] = system: Alopecurus myosuroides (ALOMY); assay: Biological Example 2 comparative herbicidal data, post-emergence glasshouse screen; conditions: 312 h, read-out: Post-emergence herbicidal activities (percentage phytotoxicity) ALOMY
Outline: (§12)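 Plants grown 8 days in a glasshouse (24/16°C day/night, 14 h light, 65% humidity) were sprayed with compound in acetone/water (50:50) containing 0.5% Tween 20. They were kept under the same conditions and watered twice daily. Phytotoxicity was scored visually after 13 days (0 = no damage, 100 = total damage).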

Setaria faberi (SETFA) [19] = assay: as above; conditions: 312 h, read-out: Post-emergence herbicidal activities (percentage phytotoxicity) SETFA
Outline: as §12

[20] = system: Echinochloa crus-galli (ECHCG); assay: as above; conditions: 312 h, read-out: Post-emergence herbicidal activities (percentage phytotoxicity) ECHCG
Outline: as §12

Eleusine indica (ELEIN) = assay: Biological Example 3 glasshouse assay for herbicidal activity, using various adjuvant systems, post-emergence; conditions: 8 g/ha, 15 DAA, 0.5% v/v Adigor + 1.0% v/v AMS + 12.5% v/v IPA
Protocol: as §2, §3, §4
Eleusine indica (ELEIN)—growth stage 12 or 13
as §5, §6, §7, §8, §10, §11, §9

[21] = system: Abutilon theophasti Medik. (ABUTH); assay: Biological Example 2 comparative herbicidal data, post-emergence glasshouse screen; conditions: read-out: Post-emergence herbicidal activities (percentage phytotoxicity) ABUTH
[22] = system: Brachiaria decumbens (BRADC); assay: Biological Example 3 glasshouse assay for herbicidal activity, using various adjuvant systems, post-emergence; conditions: 8 g/ha, 14 DAA, adjuvant system per compound
Protocol: as §2, §3, §4
Brachiaria decumbens (BRADC)— growth stage (GS) 12 or 13 (or GS 12)—or, if BRADC is not used, then Brachiaria platyphylla (BRAPP)—growth stage 12 or 13
as §5, §6
Adjuvant system 2: 0.5% v/v Adigor™ * and 12.5% v/v IPA (isopropyl alcohol). […]
as §9

[23] = system: Echinochloa crus-galli (ECHCG); assay: as above; conditions: 8 g/ha, 14 DAA, adjuvant system per compound
Protocol: as §2, §3, §4
Echinochloa crus-galli (ECHCG)—growth stage 12 or 13
as §5, §6, §7
Adjuvant system 3: 0.5% v/v Hexamoll™ DINCH **, 1.0% v/v AMS (ammonium sulphate) and 12.5% v/v IPA (isopropyl alcohol). […]
as §9

| Structure (SMILES) | pest or weed control at 250 g/ha [1] [%] | pest or weed control at 250 g/ha [2] [%] | pest or weed control at 250 g/ha (Solanum nigrum (SOLNI) [3]) [%] | pest or weed control at 250 g/ha [4] [%] | pest or weed control at 250 g/ha (Setaria faberi (SETFA) [5]) [%] | pest or weed control at 250 g/ha [6] [%] | pest or weed control at 250 g/ha [7] [%] | pest or weed control at 250 g/ha [8] [%] | pest or weed control at 250 g/ha (Solanum nigrum (SOLNI) [9]) [%] | pest or weed control at 250 g/ha [10] [%] | pest or weed control at 250 g/ha (Setaria faberi (SETFA) [11]) [%] | pest or weed control at 250 g/ha [12] [%] | further results |
| --- | --- | --- | --- | --- | --- | --- | --- | --- | --- | --- | --- | --- | --- |
| CC#Cc1cc(C)c(C2C(=O)C3CCC(C3)C2=O)c(CCC)c1 (stereo not drawn) [Compound A-3] | 90 | 10 | 20 | 0 | 90 | 100 | 100 | 0 | 0 | 40 | 100 | 100 |  |
| CC#Cc1cc(Cl)c(C2C(=O)C3CCC(C3)C2=O)c(CC)c1 (stereo not drawn) [Compound A-4] | 90 | 0 | 0 | 0 | 80 | 100 | 100 | 0 | 0 | 0 | 70 | 100 |  |
| C#Cc1cc(Cl)c(C2C(=O)CC3(CCOCC3)CC2=O)c(OC)c1 [Compound B-1, 9-(2-Chloro-4-ethynyl-6-methoxy-phenyl)-3-oxaspiro[5.5]undecane-8,10-dione] | 100 | 0 |  |  | 100 | 100 | 90 | 20 |  |  | 80 | 100 | pest or weed control at 8 g/ha ([13]; 8 g/ha application rate): 0%; pest or weed control at 30 g/ha ([13]; 30 g/ha application rate): 0%; pest or weed control at 250 g/ha [14]: 60%; percentage control of Digitaria sanguinalis (DIGSA) ([15]; 15 DAA): 85%; percentage control of Setaria faberi (SETFA) (Setaria faberi (SETFA) [16]; 15 DAA): 50%; pest or weed control at 250 g/ha [17]: 0%; pest or weed control at 8 g/ha ([18]; 8 g/ha application rate): 10%; pest or weed control at 30 g/ha ([18]; 30 g/ha application rate): 70%; pest or weed control at 8 g/ha (Setaria faberi (SETFA) [19]; 8 g/ha application rate): 30%; pest or weed control at 30 g/ha (Setaria faberi (SETFA) [19]; 30 g/ha application rate): 70%; pest or weed control at 8 g/ha ([20]; 8 g/ha application rate): 20%; pest or weed control at 30 g/ha ([20]; 30 g/ha application rate): 80%; percentage control of Eleusine indica (ELEIN) (Eleusine indica (ELEIN)): 20%; pest or weed control at 8 g/ha ([21]; 8 g/ha application rate): 0%; pest or weed control at 30 g/ha ([21]; 30 g/ha application rate): 10% |
| Cc1cc(C#CCl)ccc1C1C(=O)C(C)(C)OC(C)(C)C1=O [Compound A-7] | 80 | 0 | 50 | 20 | 80 | 80 | 80 | 60 | 40 | 20 | 30 | 80 | pest or weed control at 15.625 g/ha ([18]; 15.625 g/ha application rate): 30%; pest or weed control at 62.5 g/ha ([18]; 62.5 g/ha application rate): 50%; pest or weed control at 15.625 g/ha (Setaria faberi (SETFA) [19]; 15.625 g/ha application rate): 40%; pest or weed control at 62.5 g/ha (Setaria faberi (SETFA) [19]; 62.5 g/ha application rate): 60%; pest or weed control at 15.625 g/ha ([20]; 15.625 g/ha application rate): 0%; pest or weed control at 62.5 g/ha ([20]; 62.5 g/ha application rate): 60% |
| COc1cc(C#CCl)cc(Cl)c1C1C(=O)C2CCC(C2)C1=O (stereo not drawn) [Compound A-25, 3-[2-Chloro-4-(2-chloroethynyl)-6-methoxy-phenyl]bicyclo[3.2.1]octane-2,4-dione] |  |  |  |  |  |  |  |  |  |  |  |  | percentage control of Digitaria sanguinalis (DIGSA) ([15]; 14 DAA): 60%; percentage control of Setaria faberi (SETFA) (Setaria faberi (SETFA) [16]; 14 DAA): 40%; percentage control of Brachiaria decumbens (BRADC) [22]: 15%; percentage control of Echinochloa crus-galli (ECHCG) [23]: 45% |
